In ChEMBL document CHEMBL1201862, “PubChem BioAssay data set” (2004):
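Method: 48-hour compound exposure of cells in 96-well plates, five concentrations, linear interpolation of endpoints. GI50 = concentration required for 50% inhibition of growth.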 Activity calls are given as the source filed them. Rule as the data show it: active = GI50 up to about 1.1 µM and inactive = higher.

Assays:
Assay in all cases: NCI anticancer screen, dose series, 48 h
IGROV-1 = system: IGROV-1
KM12 = system: KM12
HOP-92 = system: HOP-92
LOX IMVI = system: LOX IMVI
TK-10 = system: TK-10
UO-31 = system: UO-31
MOLT-4 = system: MOLT-4
NCI-H522 = system: NCI-H522
MDA-MB-435 = system: MDA-MB-435
NCI-H226 = system: NCI-H226
HT-29 = system: HT-29
SNB-75 = system: SNB-75
BT-549 = system: BT-549
OVCAR-3 = system: OVCAR-3
A498 = system: A498
HL-60 = system: HL-60
SK-OV-3 = system: SK-OV-3
U-251 = system: U-251
DU-145 = system: DU-145
SF-539 = system: SF-539

Measured: GI50

O=C1NC(=O)C(c2c[nH]c3ccccc23)=C1c1cnc[nH]1
inactive: IGROV-1 > 100 µM | KM12 45.2 µM | HOP-92 > 100 µM | LOX IMVI 59 µM | TK-10 89.5 µM | UO-31 70.6 µM | MOLT-4 8.47 µM | NCI-H522 56.8 µM | MDA-MB-435 75.3 µM | NCI-H226 1.79 µM | HT-29 66.4 µM | SNB-75 > 100 µM | BT-549 46.3 µM | OVCAR-3 82 µM | A498 > 100 µM | HL-60 26.9 µM | SK-OV-3 > 100 µM | U-251 > 100 µM | DU-145 > 100 µM | SF-539 32.9 µM

O=C(O)c1cc2c(cc1CC(Cc1ccc3c(c1)CCC3)C(=O)O)CCC2 (stereo not given)
inactive: IGROV-1 > 100 µM | KM12 > 100 µM | HOP-92 20.6 µM | LOX IMVI > 100 µM | TK-10 > 100 µM | UO-31 > 100 µM | MOLT-4 > 100 µM | NCI-H522 > 100 µM | MDA-MB-435 > 100 µM | NCI-H226 > 100 µM | HT-29 > 100 µM | SNB-75 98.9 µM | BT-549 > 100 µM | OVCAR-3 > 100 µM | A498 > 100 µM | HL-60 > 100 µM | SK-OV-3 > 100 µM | U-251 > 100 µM | DU-145 > 100 µM | SF-539 > 100 µM
